Reference: US20090209581A1, “NITROXIDES FOR USE IN TREATING OR PREVENTING IMMUNOLOGICAL DISEASES” (priority 2005, published 2009)

How the values were obtained:
[1] = system: glucocorticoid-induced leucine zipper (GILZ); assay: Gene expression in cardiac tissue of mice after Tempol administration, chip-based microarray; type: in vivo
Experimental: To assess the effects of Tempol on gene expression, Tempol was administered to experimental mice at a dose of 5 mg/g of food from 14 months to 31 months after birth. Mice receiving the same food without the addition of Tempol were used as a negative control. At the age of 31 months, the experimental animals were sacrificed and the hearts were surgically removed. The expression of a broad spectrum of genes in the cardiac tissue was assessed using chip-based microarray technology. Such chips are well known in the art and are widely used to assess gene expression.

[2] = system: collagen type I alpha 1 (COL1A1); assay: Gene expression in adipose tissue of mice after Tempol administration, Affymetrix MOE430A 2.0 array; type: in vivo
Experimental: (§1) In a further gene expression study, Tempol was administered to experimental mice at a dose of 5 g/kg of diet from 12 months through 15 months. Mice receiving the same diet without the addition of Tempol were used as a negative control. At the age of 15 months, the adipose tissue of the experimental animals was obtained. The expression of a broad spectrum of genes in the adipose tissue was assessed using chip-based microarray technology. Specifically, in this case an Affymetrix MOE430A 2.0 array, containing 12,960 genes, was employed. Such chips are well known in the art and are widely used to assess gene expression.

[3] = system: complement component 6 (C6); assay: as above; type: in vivo
Experimental: as §1

[4] = system: glucocorticoid-induced leucine zipper; assay: Protein level in circulating monocytes of patient after Tempol treatment; type: in vivo, human
Experimental: (§2) A 70-kilogram patient diagnosed with an autoimmune disease is administered a dose of 1500 mg of Tempol per day for 180 days. This may be administered in a single dose, or may be administered as a number of smaller doses over a 24-hour period: for example, three 500-mg doses at eight-hour intervals. Following treatment, the protein level of glucocorticoid-induced leucine zipper in circulating monocytes is increased, and the protein levels of complement component 6 in plasma and of collagen type 1 A1 in fibroblasts is reduced.
as §2, with “patient” for “patient diagnosed with an autoimmune disease”, “days prior to receiving an organ transplant.” for “days.”

[5] = system: complement component 6; assay: Protein level in plasma of patient after Tempol treatment; type: in vivo, human
Experimental: as §2
as §2, with “patient” for “patient diagnosed with an autoimmune disease”, “days prior to receiving an organ transplant.” for “days.”

[6] = system: collagen type 1 A1; assay: Protein level in fibroblasts of patient after Tempol treatment; type: in vivo, human
Experimental: as §2
as §2, with “patient” for “patient diagnosed with an autoimmune disease”, “days prior to receiving an organ transplant.” for “days.”

[7] = 5 g/kg of diet from 12 through 15 months, microarray signal
[8] = Example 1: patient with autoimmune disease, 1500 mg per day for 180 days
[9] = Example 2: 1500 mg per day for 180 days prior to organ transplant

For `CC1(C)CC(O)CC(C)(C)N1[O]` [Tempol, 4-hydroxy-2,2,6,6-tetramethylpiperidine-1-oxyl], the “GILZ Fold change” value ([1]; TEMPOL-treated vs control mice, upregulated gene) was 2.3, the “GILZ (AA097711) expression, TEMPOL-treated mice tp51” value ([1]; mouse tp51, 5 mg/g of food from 14 to 31 months, microarray signal) was 83 and the “GILZ (AA097711) expression, TEMPOL-treated mice tp52” value ([1]; mouse tp52, 5 mg/g of food from 14 to 31 months, microarray signal) was 33. The “GILZ (AA097711) expression, TEMPOL-treated mice tp53” value ([1]; mouse tp53, 5 mg/g of food from 14 to 31 months, microarray signal) was 4, the “COL1A1 expression, Mean (Tempol-treated mice)” value [2, 7] was 1688 and the “COL1A1 Fold change” value ([2]; Tempol-treated vs control mice) was −1.28. For the same compound, the “C6 expression, Mean (Tempol-treated mice)” value [3, 7] was 337, the “C6 Fold change” value ([3]; Tempol-treated vs control mice) was −1.85 and the C6 expression decrease ([3]; Tempol-treated vs control mice) was “decrease in expression”. For the same compound, the “protein level of glucocorticoid-induced leucine zipper in circulating monocytes” value [4, 8] was “increased”, the “protein level of glucocorticoid-induced leucine zipper in circulating monocytes” value [4, 9] was “increased” and the “protein level of complement component 6 in plasma” value [5, 8] was “reduced”. For the same compound, the “protein level of complement component 6 in plasma” value [5, 9] was “reduced”, the “protein level of collagen type 1 A1 in fibroblasts” value [6, 8] was “reduced” and the “protein level of collagen type 1 A1 in fibroblasts” value [6, 9] was “reduced”.
